Assay results reported in US20250129074A1, “CHIMERIC COMPOUND FOR TARGETED DEGRADATION OF ANDROGEN RECEPTOR PROTEIN, PREPARATION METHOD THEREFOR, AND MEDICAL USE THEREOF” (Jiangsu Hengrui Pharmaceuticals Co., Ltd., priority 2021, published 2025).
Read-outs that look alike come from different tables or passages of the source.

Legend:
LNCaP cells = test: Inhibition of LNCaP proliferation (CellTiter-Glo); format: cell-based; conditions: Homo sapiens, 144 h, 0.1 nM R1881, six days; for Emax: read-out: Max (maximum proliferation inhibition rate)
Procedure: The plate was incubated in a 37° C., 5% CO2 cell incubator for three days. […] A blank control cell well containing 0.5% DMSO and a cell-free vehicle control well were set up. The plate was incubated in a 37° C., 5% CO2 cell incubator for six days.

androgen receptor (AR) = target: T1, androgen receptor (AR) (Homo sapiens, UniProt P10275, T878A); test: Degradation activity on androgen receptor in LNCaP cells (AR ELISA); format: cell-based; conditions: for Dmax: read-out: Max (maximum AR degradation rate)
T1 construct: host or cells: LNCaP human prostate cancer cells
T1 sequence (P10275 1-920 T878A): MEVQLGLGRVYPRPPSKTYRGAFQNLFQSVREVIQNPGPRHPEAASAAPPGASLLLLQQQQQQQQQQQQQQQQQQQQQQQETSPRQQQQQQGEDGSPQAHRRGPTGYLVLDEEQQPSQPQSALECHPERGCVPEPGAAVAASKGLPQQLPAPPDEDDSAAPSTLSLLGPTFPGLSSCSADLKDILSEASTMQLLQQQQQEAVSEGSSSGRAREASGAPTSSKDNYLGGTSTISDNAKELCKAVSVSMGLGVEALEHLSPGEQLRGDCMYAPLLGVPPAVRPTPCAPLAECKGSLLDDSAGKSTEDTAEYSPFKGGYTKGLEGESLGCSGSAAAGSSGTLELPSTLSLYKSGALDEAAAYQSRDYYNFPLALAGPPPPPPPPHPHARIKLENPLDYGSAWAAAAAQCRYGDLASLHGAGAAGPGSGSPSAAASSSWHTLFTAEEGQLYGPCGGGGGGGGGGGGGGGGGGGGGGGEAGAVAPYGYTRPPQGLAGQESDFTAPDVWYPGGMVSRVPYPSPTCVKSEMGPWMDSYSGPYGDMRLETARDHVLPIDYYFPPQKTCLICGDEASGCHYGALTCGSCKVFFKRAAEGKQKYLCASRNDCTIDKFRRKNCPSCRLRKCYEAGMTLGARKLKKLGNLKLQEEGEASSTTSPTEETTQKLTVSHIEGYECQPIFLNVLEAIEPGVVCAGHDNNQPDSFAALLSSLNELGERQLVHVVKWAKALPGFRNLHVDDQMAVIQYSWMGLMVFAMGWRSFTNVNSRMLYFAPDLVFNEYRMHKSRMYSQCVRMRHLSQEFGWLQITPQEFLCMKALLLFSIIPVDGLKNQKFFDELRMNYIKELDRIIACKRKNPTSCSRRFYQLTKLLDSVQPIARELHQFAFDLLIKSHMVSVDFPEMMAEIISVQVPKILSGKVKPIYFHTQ
Procedure: The plate was incubated in a 37° C., 5% CO2 cell incubator for three days. […] A blank control cell well containing 0.5% DMSO was set up. The plate was incubated in a 37° C., 5% CO2 cell incubator for 24 hours. […] The lysate was well mixed by pipetting up and down and then centrifuged at 4000 rpm at 4° C. for 10 minutes. […] The plate was sealed and incubated in a 37° C. incubator for 1 hour. […] The plate was sealed and then incubated in a 37° C. incubator for 30 minutes.

[1] = read-out: LNCaP DC50, 0.1 nM R1881, 24 hours
[2] = 0.1 nM R1881, 24 hours, read-out: LNCaP DC50

Compound | IC50 (LNCaP cells) | Emax (LNCaP cells) | Dmax (androgen receptor (AR); 0.1 nM R1881, 24 hours) | DC50 (androgen receptor (AR); [1]) | DC50 (androgen receptor (AR); [2])
C[C@H]1CC2(CCN(c3ccc(C(=O)N4CCC(CN5CCN(c6cccc(NC7CCC(=O)NC7=O)c6)CC5)CC4)c(F)c3)CC2)CN1c1ccc(C#N)c(Cl)c1 (stereo partly drawn) [Example 16, 2-Chloro-4-((3S)-8-(4-(4-((4-(3-((2,6-dioxopiperidin-3-yl)amino)phenyl)piperazin-1-yl)methyl)piperidine-1-carbonyl)-3-fluorophenyl)-3-methyl-2,8-diazaspiro[4.5]decan-2-yl)benzonitrile] | 84 nM | 70% | 97% | 3.9 nM | –
C[C@H]1CC2(CCN(c3ccc(C(=O)N4CCN(CC(=O)Nc5cccc(NC6CCC(=O)NC6=O)c5)CC4)cc3)CC2)CN1c1ccc(C#N)c(Cl)c1 (stereo partly drawn) [Example 42, 2-(4-(4-((S)-2-(3-Chloro-4-cyanophenyl)-3-methyl-2,8-diazaspiro[4.5]decan-8-yl)benzoyl)piperazin-1-yl)-N-(3-((2,6-dioxopiperidin-3-yl)amino)phenyl)acetamide] | 39 nM | 50% | 90% | – | 4.2 nM
C[C@H]1CC2(CCN(c3ccc(C(=O)N4CCC(CN5CCN(c6cc(NC7CCC(=O)NC7=O)ccn6)CC5)CC4)cc3)CC2)CN1c1ccc(C#N)c(Cl)c1 (stereo partly drawn) [Example 24, 2-Chloro-4-((3S)-8-(4-(4-((4-(4-((2,6-dioxopiperidin-3-yl)amino)pyridin-2-yl)piperazin-1-yl)methyl)piperidine-1-carbonyl)phenyl)-3-methyl-2,8-diazaspiro[4.5]decan-2-yl)benzonitrile] | 659 nM | 54% | 94% | – | 9.1 nM
C[C@H]1CC2(CCN(c3ccc(C(=O)N4CCC(CN5CCN(c6cccc(NC7CCC(=O)NC7=O)c6)CC5)CC4)cn3)CC2)CN1c1ccc(C#N)c(Cl)c1 (stereo partly drawn) [Example 18, 2-Chloro-4-((3S)-8-(5-(4-((4-(3-((2,6-dioxopiperidin-3-yl)amino)phenyl)piperazin-1-yl)methyl)piperidine-1-carbonyl)pyridin-2-yl)-3-methyl-2,8-diazaspiro[4.5]decan-2-yl)benzonitrile] | 123 nM | 72% | 96% | – | 5.8 nM
C[C@H]1CC2(CCN(c3ccc(C(=O)N4CCC(CN5CCN(c6ccc(C(=O)NC7CCC(=O)NC7=O)nc6)CC5)CC4)cc3)CC2)CN1c1ccc(C#N)c(Cl)c1 (stereo partly drawn) [Example 4, 5-(4-((1-(4-((S)-2-(3-Chloro-4-cyanophenyl)-3-methyl-2,8-diazaspiro[4.5]decan-8-yl)benzoyl)piperidin-4-yl)methyl)piperazin-1-yl)-N-(2,6-dioxopiperidin-3-yl)picolinamide] | 135 nM | 58% | 92% | – | 20.2 nM
C[C@H]1CC2(CCN(c3ccc(C(=O)N4CCC(N5CCN(c6cccc(NC7CCC(=O)NC7=O)c6)CC5)CC4)cc3)CC2)CN1c1ccc(C#N)c(Cl)c1 (stereo partly drawn) [Example 10, 2-Chloro-4-((3S)-8-(4-(4-(4-(3-((2,6-dioxopiperidin-3-yl)amino)phenyl)piperazin-1-yl)piperidine-1-carbonyl)phenyl)-3-methyl-2,8-diazaspiro[4.5]decan-2-yl)benzonitrile] | 93 nM | 70% | 97% | – | 2.5 nM
C[C@H]1CC2(CCN(c3ccc(C(=O)N4CCC5(CC4)CC(N4CCN(c6ccc(C7CCC(=O)NC7=O)cc6)CC4)C5)cc3)CC2)CN1c1ccc(C#N)c(Cl)c1 (stereo partly drawn) [Example 34, 2-Chloro-4-((3S)-8-(4-(2-(4-(4-(2,6-dioxopiperidin-3-yl)phenyl)piperazin-1-yl)-7-azaspiro[3.5]nonane-7-carbonyl)phenyl)-3-methyl-2,8-diazaspiro[4.5]decan-2-yl)benzonitrile] | 12 nM | 60% | 96% | – | 5 nM
C[C@H]1CC2(CCN(c3ccc(C(=O)N4CCC(CN5CCC(c6ccc(NC7CCC(=O)NC7=O)cc6)CC5)CC4)cc3)CC2)CN1c1ccc(C#N)c(Cl)c1 (stereo partly drawn) [Example 26, 2-Chloro-4-((3S)-8-(4-(4-((4-(4-((2,6-dioxopiperidin-3-yl)amino)phenyl)piperidin-1-yl)methyl)piperidine-1-carbonyl)phenyl)-3-methyl-2,8-diazaspiro[4.5]decan-2-yl)benzonitrile] | 7.8 nM | 63% | 94% | – | 2.5 nM
C[C@H]1CC2(CCN(c3ccc(C(=O)N4CCC(CN5CCC(c6cccc(NC7CCC(=O)NC7=O)c6)CC5)CC4)nn3)CC2)CN1c1ccc(C#N)c(Cl)c1 (stereo partly drawn) [Example 20, 2-Chloro-4-((3S)-8-(6-(4-((4-(3-((2,6-dioxopiperidin-3-yl)amino)phenyl)piperidin-1-yl)methyl)piperidine-1-carbonyl)pyridazin-3-yl)-3-methyl-2,8-diazaspiro[4.5]decan-2-yl)benzonitrile] | 15 nM | 59% | 92% | – | 0.4 nM
C[C@H]1CC2(CCN(c3ccc(C(=O)N4CCC(CN5CCC(c6cccc(NC7CCC(=O)NC7=O)c6)CC5)CC4)cc3)CC2)CN1c1ccc(C#N)c(Cl)c1 (stereo partly drawn) [Example 19, 2-Chloro-4-((3S)-8-(4-(4-((4-(3-((2,6-dioxopiperidin-3-yl)amino)phenyl)piperidin-1-yl)methyl)piperidine-1-carbonyl)phenyl)-3-methyl-2,8-diazaspiro[4.5]decan-2-yl)benzonitrile] | 60 nM | 68% | 96% | – | 1.8 nM
C[C@H]1CC2(CCN(c3ccc(C(=O)N4CCC5(CC4)CC(N4CCN(c6ccc(N7CCC(=O)NC7=O)cc6)CC4)C5)nc3)CC2)CN1c1ccc(C#N)c(Cl)c1 [Example 32, (S)-2-Chloro-4-(8-(6-(2-(4-(4-(2,4-dioxotetrahydropyrimidin-1(2H)-yl)phenyl)piperazin-1-yl)-7-azaspiro[3.5]nonane-7-carbonyl)pyridin-3-yl)-3-methyl-2,8-diazaspiro[4.5]decan-2-yl)benzonitrile] | 3.1 nM | 63% | 95% | – | 1 nM
C[C@H]1CC2(CCN(c3ccc(C(=O)N4CCC(N5CCC(N6CCN(c7ccc(N8CCC(=O)NC8=O)cc7)CC6)CC5)CC4)cc3)CC2)CN1c1ccc(C#N)c(Cl)c1 [Example 6, (S)-2-Chloro-4-(8-(4-(4-(4-(4-(2,4-dioxotetrahydropyrimidin-1(2H)-yl)phenyl)piperazin-1-yl)-[1,4′-bipiperidine]-1′-carbonyl)phenyl)-3-methyl-2,8-diazaspiro[4.5]decan-2-yl)benzonitrile] | 24.6 nM | 50% | 86% | – | 5.7 nM
C[C@H]1CC2(CCN(c3ccc(C(=O)N4CCC(N5CCN(c6ccc(C(=O)NC7CCC(=O)NC7=O)nc6)CC5)CC4)cc3)CC2)CN1c1ccc(C#N)c(Cl)c1 (stereo partly drawn) [Example 2, 5-(4-(1-(4-((S)-2-(3-Chloro-4-cyanophenyl)-3-methyl-2,8-diazaspiro[4.5]decan-8-yl)benzoyl)piperidin-4-yl)piperazin-1-yl)-N-(2,6-dioxopiperidin-3-yl)picolinamide] | 164 nM | 62% | 90% | 5.1 nM | –
